According to the supplement of paper PMC10307832:

Experiments:
Assay in all cases: relative viability (nuclei count vs DMSO), 5 days (fraction); higher = more cells survive
Carboplatin + Alpelisib = compound: C1CC(C1)(C(=O)O)C(=O)O.[NH2-].[NH2-].[Pt+2] [Carboplatin] + Cc1nc(NC(=O)N2CCC[C@H]2C(N)=O)sc1-c1ccnc(C(C)(C)C(F)(F)F)c1 [Alpelisib] (partner 2 µM)
Summary of the method: (§1)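 Five library-drug doses in √10 steps were combined with a fixed anchor-drug dose, or a single drug was given alone, by pin tool to lung cancer cell lines in 1536-well plates the day after seeding. Nuclei were stained and counted after 5 days. Relative viability is the nuclei count in treated wells over that in vehicle wells, taken as the median of duplicate plates.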

Carboplatin + Dasatinib = compound: C1CC(C1)(C(=O)O)C(=O)O.[NH2-].[NH2-].[Pt+2] [Carboplatin] + Cc1nc(Nc2ncc(C(=O)Nc3c(C)cccc3Cl)s2)cc(N2CCN(CCO)CC2)n1 [Dasatinib] (partner 0.075 µM)
Summary of the method: as §1

GSK126 + OSI-027 = compound: CC[C@H](C)N1C=C(C2=C(C=C(C=C21)C3=CN=C(C=C3)N4CCNCC4)C(=O)NCC5=C(C=C(NC5=O)C)C)C [GSK126] + COc1cccc2cc(-c3nc([C@H]4CC[C@H](C(=O)O)CC4)n4ncnc(N)c34)[nH]c12 [OSI-027] (partner 0.5 µM)
Summary of the method: as §1

GSK126 + Pemetrexed = compound: CC[C@H](C)N1C=C(C2=C(C=C(C=C21)C3=CN=C(C=C3)N4CCNCC4)C(=O)NCC5=C(C=C(NC5=O)C)C)C [GSK126] + Nc1nc2[nH]cc(CCc3ccc(C(=O)N[C@@H](CCC(=O)O)C(=O)O)cc3)c2c(=O)[nH]1 [Pemetrexed] (partner 0.2 µM)
Summary of the method: as §1

Cell Line | relative viability (Carboplatin + Alpelisib; first compound 0.08 µM) | relative viability (Carboplatin + Alpelisib; first compound 0.253 µM) | relative viability (Carboplatin + Alpelisib; first compound 0.8 µM) | relative viability (Carboplatin + Alpelisib; first compound 2.53 µM) | relative viability (Carboplatin + Alpelisib; first compound 8 µM) | relative viability (Carboplatin + Dasatinib; first compound 0.08 µM) | relative viability (Carboplatin + Dasatinib; first compound 0.253 µM) | relative viability (Carboplatin + Dasatinib; first compound 0.8 µM) | relative viability (Carboplatin + Dasatinib; first compound 2.53 µM) | relative viability (Carboplatin + Dasatinib; first compound 8 µM) | relative viability (GSK126 + OSI-027; first compound 0.08 µM) | relative viability (GSK126 + OSI-027; first compound 0.253 µM) | relative viability (GSK126 + OSI-027; first compound 0.8 µM) | relative viability (GSK126 + OSI-027; first compound 2.53 µM) | relative viability (GSK126 + OSI-027; first compound 8 µM) | relative viability (GSK126 + Pemetrexed; first compound 0.08 µM) | relative viability (GSK126 + Pemetrexed; first compound 0.253 µM) | relative viability (GSK126 + Pemetrexed; first compound 0.8 µM) | relative viability (GSK126 + Pemetrexed; first compound 2.53 µM) | relative viability (GSK126 + Pemetrexed; first compound 8 µM)
SW 1573 | 0.827 | 0.758 | 0.767 | 0.798 | 0.693 | 0.58 | 0.495 | 0.474 | 0.507 | 0.329 | 0.959 | 0.656 | 0.665 | 0.625 | 0.846 | 0.945 | 0.981 | 0.934 | 1.08 | 0.877
PC-14 | 0.992 | 0.838 | 0.875 | 0.883 | 0.711 | 0.288 | 0.292 | 0.261 | 0.131 | 0.068 | 1.06 | 0.854 | 0.757 | 0.939 | 0.83 | 0.131 | 0.133 | 0.135 | 0.155 | 0.148
LOU-NH91 | 0.797 | 0.731 | 0.7 | 0.688 | 0.688 | 0.674 | 0.578 | 0.542 | 0.568 | 0.538 | 0.728 | 0.735 | 0.751 | 0.681 | 0.787 | 0.399 | 0.35 | 0.376 | 0.362 | 0.423
BEN | 1.11 | 1.04 | 0.891 | 0.798 | 0.909 | 0.339 | 0.296 | 0.284 | 0.319 | 0.228 | 0.324 | 0.349 | 0.281 | 0.288 | 0.287 | 0.881 | 0.715 | 0.832 | 0.896 | 0.785
NCI-H2085 | 0.998 | 1.05 | 0.907 | 0.882 | 0.756 | 0.243 | 0.293 | 0.243 | 0.239 | 0.255 | 0.919 | 0.716 | 0.839 | 0.683 | 0.812 | 1.03 | 0.874 | 0.894 | 0.854 | 0.978
LCLC-103H | 1.1 | 0.975 | 1.09 | 1 | 0.934 | 0.481 | 0.55 | 0.524 | 0.482 | 0.445 | 0.514 | 0.453 | 0.533 | 0.435 | 0.456 | 0.397 | 0.499 | 0.431 | 0.469 | 0.538
NCI-H661 | 0.567 | 0.66 | 0.703 | 0.595 | 0.648 | 1.06 | 0.923 | 0.844 | 0.82 | 0.746 | 0.769 | 0.737 | 0.762 | 0.746 | 0.74 | 0.982 | 0.897 | 0.991 | 0.914 | 0.967
NCI-H1792 | 0.802 | 0.634 | 0.515 | 0.444 | 0.6 | 0.831 | 0.776 | 0.816 | 0.692 | 0.62 | 0.643 | 0.796 | 0.679 | 0.786 | 0.675 | 0.89 | 0.727 | 0.806 | 0.698 | 0.818
H3255 | 0.685 | 0.698 | 0.673 | 0.657 | 0.575 | 0.367 | 0.416 | 0.418 | 0.415 | 0.334 | 0.573 | 0.568 | 0.578 | 0.666 | 0.583 | 0.596 | 0.548 | 0.568 | 0.898 | 0.58
NCI-H1563 | 1.04 | 0.925 | 0.91 | 0.921 | 0.984 | 0.496 | 0.464 | 0.439 | 0.399 | 0.445 | 0.789 | 0.785 | 0.863 | 0.803 | 0.753 | 0.848 | 0.808 | 0.772 | 0.579 | 0.754
EMC-BAC-2 | 0.816 | 0.719 | 0.762 | 0.734 | 0.714 | 0.327 | 0.343 | 0.305 | 0.271 | 0.281 | 0.398 | 0.381 | 0.397 | 0.379 | 0.373 | 0.421 | 0.46 | 0.46 | 0.419 | 0.376
NCI-H1666 | 1.16 | 0.909 | 0.855 | 0.773 | 0.543 | 0.836 | 0.774 | 0.589 | 0.533 | 0.561 | 0.886 | 0.868 | 0.986 | 0.789 | 0.822 | 0.872 | 0.936 | 0.766 | 0.796 | 0.807
HCC-366 | 0.476 | 0.552 | 0.344 | 0.294 | 0.314 | 0.609 | 0.619 | 0.624 | 0.594 | 0.403 | 1.2 | 0.754 | 0.868 | 0.927 | 0.847 | 0.179 | 0.161 | 0.14 | 0.149 | 0.158
LCLC-97TM1 | 0.262 | – | 0.25 | 0.256 | 0.199 | 0.848 | 0.921 | 0.844 | 0.808 | 0.647 | 0.503 | 0.421 | 0.546 | 0.606 | 0.635 | 0.19 | 0.193 | 0.171 | 0.179 | 0.194
NCI-H2405 | 0.925 | 0.734 | 0.671 | 0.763 | 0.639 | 0.234 | 0.206 | 0.214 | 0.191 | 0.215 | 0.602 | 0.633 | 0.611 | 0.622 | 0.662 | 1.01 | 0.993 | 0.994 | 1.09 | 0.94
NCI-H1915 | 1.05 | 1.06 | 0.966 | 0.893 | 0.675 | 0.288 | 0.304 | 0.315 | 0.305 | 0.255 | 0.609 | 0.622 | 0.704 | 0.655 | 0.594 | 0.573 | 0.484 | 0.504 | 0.477 | 0.484
